Measured values from patent publication US11173151B2, “Substituted triazole derivatives and uses thereof” (BAYER AKTIENGESELLSCHAFT, priority 2017, dated 2021).

Key:
human V2 receptor = biological target: T1, human V2 receptor (Homo sapiens, UniProt P30518); experiment: Cellular in vitro assay for determining vasopressin receptor activity, V2 receptor cell line (CHO, CRE-luciferase); type: cell-based; conditions: CHO cell line transfected with human V2 receptor; [Arg8]-vasopressin at EC50 concentration; read-out: IC50 hV2
T1 construct: expressed in transfected cells; host or cells: CHO K1 (ATCC) expressing firefly luciferase under a CRE-responsive promoter

human V1a receptor = biological target: T2, human V1a receptor (Homo sapiens, UniProt P37288); experiment: Cellular in vitro assay for determining vasopressin receptor activity, V1a receptor cell line (CHO, aequorin luminescence); type: cell-based; conditions: for IC50: CHO cell line transfected with human V1a receptor, [Arg]-vasopressin at EC50 concentration, read-out: IC50 hV1a; for ratio IC50 hV2/hV1a: selectivity ratio IC50 hV2 / IC50 hV1a
T2 construct: expressed in transfected cells; host or cells: CHO K1 (ATCC), also stably transfected with a modified aequorin
Outline: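 Cells were plated the day before in medium containing 5 μg/ml coelenterazine and kept at 37° C. Compounds at various concentrations were then added for 10 minutes. Next, [Arg]-vasopressin at EC50 was applied and light output recorded at once, yielding IC50.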

T2 sequence (P37288 whole entry): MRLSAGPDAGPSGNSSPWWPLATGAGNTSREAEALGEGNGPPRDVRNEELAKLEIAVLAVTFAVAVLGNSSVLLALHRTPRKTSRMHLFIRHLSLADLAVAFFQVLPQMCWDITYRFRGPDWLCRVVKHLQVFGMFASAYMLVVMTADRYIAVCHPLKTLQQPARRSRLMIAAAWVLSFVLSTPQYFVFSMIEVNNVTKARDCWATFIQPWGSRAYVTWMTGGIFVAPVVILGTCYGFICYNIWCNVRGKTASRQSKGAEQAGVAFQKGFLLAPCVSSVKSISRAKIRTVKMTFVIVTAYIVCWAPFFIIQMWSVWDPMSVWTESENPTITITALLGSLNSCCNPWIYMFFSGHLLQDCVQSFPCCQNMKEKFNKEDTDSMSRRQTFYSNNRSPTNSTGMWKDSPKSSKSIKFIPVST
T1 sequence (P30518 whole entry): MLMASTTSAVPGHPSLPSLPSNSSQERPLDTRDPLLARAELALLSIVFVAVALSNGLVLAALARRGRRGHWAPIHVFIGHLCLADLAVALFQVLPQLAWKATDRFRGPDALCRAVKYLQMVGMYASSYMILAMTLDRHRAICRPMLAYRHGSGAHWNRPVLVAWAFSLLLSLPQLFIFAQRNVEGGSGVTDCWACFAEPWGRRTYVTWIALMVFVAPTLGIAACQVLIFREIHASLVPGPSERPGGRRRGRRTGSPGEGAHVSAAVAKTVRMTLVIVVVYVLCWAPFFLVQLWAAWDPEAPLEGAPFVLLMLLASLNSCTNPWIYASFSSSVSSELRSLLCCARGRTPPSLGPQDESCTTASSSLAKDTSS

For `O=C(NC1CC1(F)F)c1cccnc1-n1cnc(Cn2nc(-c3ccc(Cl)cc3)n(C[C@H](O)C(F)(F)F)c2=O)n1` (stereo partly drawn) [Example 500, 2-[3-({3-(4-Chlorophenyl)-5-oxo-4-[(2S)-3,3,3-trifluoro-2-hydroxypropyl]-4,5-dihydro-1H-1,2,4-triazol-1-yl}methyl)-1H-1,2,4-triazol-1-yl]-N-(2,2-difluorocyclopropyl)pyridine-3-carboxamide], the IC50 (human V2 receptor) was 0.305 µM, the IC50 (human V1a receptor) was 0.0068 µM and the “ratio IC50 hV2/hV1a” value (human V1a receptor) was 44.9.

For `COC[C@H]1CCCN1C(=O)c1cccnc1-n1cnc(Cn2nc(-c3ccc(Cl)cc3)n(C[C@H](O)C(F)(F)F)c2=O)n1` [Example 501, 5-(4-Chlorophenyl)-2-{[1-(3-{[(2R)-2-(methoxymethyl)pyrrolidin-1-yl]carbonyl}pyridin-2-yl)-1H-1,2,4-triazol-3-yl]methyl}-4-[(2S)-3,3,3-trifluoro-2-hydroxypropyl]-2,4-dihydro-3H-1,2,4-triazol-3-one], the IC50 (human V2 receptor) was 0.53 µM, the IC50 (human V1a receptor) was 0.0305 µM and the “ratio IC50 hV2/hV1a” value (human V1a receptor) was 17.4.

In the case of `COC[C@@H]1CCCN1C(=O)c1cccnc1-n1cnc(Cn2nc(-c3ccc(Cl)cc3)n(C[C@H](O)C(F)(F)F)c2=O)n1` [Example 502, 5-(4-Chlorophenyl)-2-{[1-(3-{[(2S)-2-(methoxymethyl)pyrrolidin-1-yl]carbonyl}pyridin-2-yl)-1H-1,2,4-triazol-3-yl]methyl}-4-[(2S)-3,3,3-trifluoro-2-hydroxypropyl]-2,4-dihydro-3H-1,2,4-triazol-3-one], the IC50 (human V2 receptor) is reported as 2 µM, the IC50 (human V1a receptor) is reported as 0.0295 µM and the “ratio IC50 hV2/hV1a” value (human V1a receptor) is reported as 67.8.

With `CC1(NC(=O)c2cccnc2-n2cnc(Cn3nc(-c4ccc(Cl)cc4)n(C[C@H](O)C(F)(F)F)c3=O)n2)CC1` [Example 505, 2-[3-({3-(4-Chlorophenyl)-5-oxo-4-[(2S)-3,3,3-trifluoro-2-hydroxypropyl]-4,5-dihydro-1H-1,2,4-triazol-1-yl}methyl)-1H-1,2,4-triazol-1-yl]-N-(1-methylcyclopropyl)pyridine-3-carboxamide] the IC50 (human V2 receptor) was 0.055 µM, the IC50 (human V1a receptor) was 0.00105 µM and the “ratio IC50 hV2/hV1a” value (human V1a receptor) was 52.6.

In the case of `N#CC1(NC(=O)c2cccnc2-n2cnc(Cn3nc(-c4ccc(Cl)cc4)n(C[C@H](O)C(F)(F)F)c3=O)n2)CC1` [Example 506, 2-[3-({3-(4-Chlorophenyl)-5-oxo-4-[(2S)-3,3,3-trifluoro-2-hydroxypropyl]-4,5-dihydro-1H-1,2,4-triazol-1-yl}methyl)-1H-1,2,4-triazol-1-yl]-N-(1-cyanocyclopropyl)pyridine-3-carboxamide], the IC50 (human V2 receptor) is reported as 0.905 µM, the IC50 (human V1a receptor) is reported as 0.014 µM and the “ratio IC50 hV2/hV1a” value (human V1a receptor) is reported as 64.6.

With `O=C1CN(c2nc(Cn3nc(-c4ccc(Cl)cc4)n(C[C@H](O)C(F)(F)F)c3=O)nn2-c2cccnc2C(=O)NCC(F)(F)F)CCN1` [Example 509, 3-[3-({3-(4-Chlorophenyl)-5-oxo-4-[(2S)-3,3,3-trifluoro-2-hydroxypropyl]-4,5-dihydro-1H-1,2,4-triazol-1-yl}methyl)-5-(3-oxopiperazin-1-yl)-1H-1,2,4-triazol-1-yl]-N-(2,2,2-trifluoroethyl)pyridine-2-carboxamide] the IC50 (human V2 receptor) was 32 µM, the IC50 (human V1a receptor) was 2.65 µM and the “ratio IC50 hV2/hV1a” value (human V1a receptor) was 12.1.

In the case of `O=C1CN(C(=O)c2nc(Cn3nc(-c4ccc(Cl)cc4)n(C[C@H](O)C(F)(F)F)c3=O)nn2-c2cnccc2C(=O)NCC(F)(F)F)CCN1` [Example 510, 3-{3-({3-(4-Chlorophenyl)-5-oxo-4-[(2S)-3,3,3-trifluoro-2-hydroxypropyl]-4,5-dihydro-1H-1,2,4-triazol-1-yl}methyl)-5-[(3-oxopiperazin-1-yl)carbonyl]-1H-1,2,4-triazol-1-yl}-N-(2,2,2-trifluoroethyl)pyridine-4-carboxamide], the IC50 (human V2 receptor) is reported as 8.9 µM, the IC50 (human V1a receptor) is reported as 9.95 µM and the “ratio IC50 hV2/hV1a” value (human V1a receptor) is reported as 0.9.

With `O=C1CN(C(=O)c2nc(Cn3nc(-c4ccc(Cl)cc4)n(C[C@H](O)C(F)(F)F)c3=O)nn2-c2cnccc2C(=O)NCCC(F)(F)F)CCN1` [Example 511, 3-{3-({3-(4-Chlorophenyl)-5-oxo-4-[(2S)-3,3,3-trifluoro-2-hydroxypropyl]-4,5-dihydro-1H-1,2,4-triazol-1-yl}methyl)-5-[(3-oxopiperazin-1-yl)carbonyl]-1H-1,2,4-triazol-1-yl}-N-(3,3,3-trifluoropropyl)pyridine-4-carboxamide] the IC50 (human V2 receptor) was 1.45 µM, the IC50 (human V1a receptor) was 1.65 µM and the “ratio IC50 hV2/hV1a” value (human V1a receptor) was 0.9.

In the case of `O=C1CN(C(=O)c2nc(Cn3nc(-c4ccc(Cl)cc4)n(C[C@H](O)C(F)(F)F)c3=O)nn2-c2ncccc2C(=O)NCCC(F)(F)F)CCN1` [Example 512, 2-{3-({3-(4-Chlorophenyl)-5-oxo-4-[(2S)-3,3,3-trifluoro-2-hydroxypropyl]-4,5-dihydro-1H-1,2,4-triazol-1-yl}methyl)-5-[(3-oxopiperazin-1-yl)carbonyl]-1H-1,2,4-triazol-1-yl}-N-(3,3,3-trifluoropropyl)pyridine-3-carboxamide], the IC50 (human V2 receptor) is reported as 1.25 µM, the IC50 (human V1a receptor) is reported as 3.6 µM and the “ratio IC50 hV2/hV1a” value (human V1a receptor) is reported as 0.3.

For `O=C1CN(C(=O)c2nc(Cn3nc(-c4ccc(Cl)cc4)n(C[C@H](O)C(F)(F)F)c3=O)nn2-c2ncccc2C(=O)NC2CC2)CCN1` [Example 513, 2-{3-({3-(4-Chlorophenyl)-5-oxo-4-[(2S)-3,3,3-trifluoro-2-hydroxypropyl]-4,5-dihydro-1H-1,2,4-triazol-1-yl}methyl)-5-[(3-oxopiperazin-1-yl)carbonyl]-1H-1,2,4-triazol-1-yl}-N-cyclopropylpyridine-3-carboxamide], the IC50 (human V2 receptor) was 5.45 µM, the IC50 (human V1a receptor) was 2.4 µM and the “ratio IC50 hV2/hV1a” value (human V1a receptor) was 2.3.

For `O=C1CN(C(=O)c2nc(Cn3nc(-c4ccc(Cl)cc4)n(C[C@H](O)C(F)(F)F)c3=O)nn2-c2cnccc2C(=O)NC2CC2)CCN1` [Example 514, 3-{3-({3-(4-Chlorophenyl)-5-oxo-4-[(2S)-3,3,3-trifluoro-2-hydroxypropyl]-4,5-dihydro-1H-1,2,4-triazol-1-yl}methyl)-5-[(3-oxopiperazin-1-yl)carbonyl]-1H-1,2,4-triazol-1-yl}-N-cyclopropylpyridine-4-carboxamide], the IC50 (human V2 receptor) was 1.25 µM, the IC50 (human V1a receptor) was 0.34 µM and the “ratio IC50 hV2/hV1a” value (human V1a receptor) was 3.7.

With `CC1(NC(=O)c2ccncc2-n2nc(Cn3nc(-c4ccc(Cl)cc4)n(C[C@H](O)C(F)(F)F)c3=O)nc2C(=O)N2CCNC(=O)C2)CC1` [Example 515, 3-{3-({3-(4-Chlorophenyl)-5-oxo-4-[(2S)-3,3,3-trifluoro-2-hydroxypropyl]-4,5-dihydro-1H-1,2,4-triazol-1-yl}methyl)-5-[(3-oxopiperazin-1-yl)carbonyl]-1H-1,2,4-triazol-1-yl}-N-(1-methylcyclopropyl)pyridine-4-carboxamide] the IC50 (human V2 receptor) was 2.25 µM, the IC50 (human V1a receptor) was 2 µM and the “ratio IC50 hV2/hV1a” value (human V1a receptor) was 1.1.

With `O=C(NCC(F)(F)F)c1ccncc1-n1nc(Cn2nc(-c3ccc(Cl)cc3)n(C[C@H](O)C(F)(F)F)c2=O)nc1C(=O)N1CCS(=O)(=O)CC1` [Example 518, 3-{3-({3-(4-Chlorophenyl)-5-oxo-4-[(2S)-3,3,3-trifluoro-2-hydroxypropyl]-4,5-dihydro-1H-1,2,4-triazol-1-yl}methyl)-5-[(1,1-dioxidothiomorpholin-4-yl)carbonyl]-1H-1,2,4-triazol-1-yl}-N-(2,2,2-trifluoroethyl)pyridine-4-carboxamide] the IC50 (human V2 receptor) was 0.48 µM, the IC50 (human V1a receptor) was 0.955 µM and the “ratio IC50 hV2/hV1a” value (human V1a receptor) was 0.5.
